From patent US20210106612A1, “TARGET GENE TRANSCRIPTIONAL REPRESSION INHIBITOR THAT CAN BE DESIGNED IN A SEQUENCE-SPECIFIC MANNER, COMPOSITION CONTAINING SAME, AND USE THEREOF” (National University Corporation Chiba University, priority 2016, published 2021)

Tests used:
[1] = system: RKO cells; test: genome-wide DNA methylation analysis (Infinium Human Methylation 450 BeadChip) in RKO cells; format: cell-based; details: for genome-wide methylation level: RKO cells, 0.5 μM AZA, 10 μM Im0 or Im3 under hypoxic conditions, FIG. 8; for genes whose methylation level was reduced by Im0 and Im3 in common, TSS±1 kb region / probes whose methylation level was reduced by Im0 and Im3 in common, TSS±1 kb region / probes whose methylation level was reduced by Im0 and Im3 in common, whole genome: β value <0.65 in Im0-treated and in Im3-treated cells of H75; for genes whose methylation was selectively reduced by this PIP, TSS±1 kb region / probes whose methylation was selectively reduced by this PIP, TSS±1 kb region / probes whose methylation was selectively reduced by this PIP, whole genome: β value <0.65 with this PIP and >0.8 with the other PIP on H75, 10 μM, 75 days, hypoxia after AZA
Experimental: (§1) The large intestine cancer cell line RKO cells were seeded at a density of 1×10^5 cells over a 6 cm dish and incubated for 24 hours. Subsequently, the culture solution was replaced with a culture solution containing 0.5 μM 5-aza-2′-deoxycytidine (AZA). The cultured cells were exposed to AZA over 2.4 hours. The cells were recovered on the 10th day, or cultured under hypoxic conditions as mentioned below.
(§2) In order to culture the cells under hypoxic conditions, the cells were cultured for 8 days under continuous aeration conditions with humidified air containing 94% N2, 5% CO2 and 1% O2 in an incubator equipped with an O2 sensor and MCO-18M regulator (Sanyo Electric Co., Ltd., Osaka, Japan). The CO2 concentration was maintained by the internal CO2 concentration regulation mechanism. Subsequently, the AZA-treated cells were treated with 0.1% DMSO containing 10 μM Im0 or Im3 for 75 days. During this operation, the medium containing PIP was replaced every 5 days. The cells were subcultured at a density of 2×10^5 cells over a 6 cm dish when becoming confluent. The cells were recovered on the 0th day (H0, before hypoxia treatment) and the 75th day (H75).
Genome-wide DNA methylation analysis was conducted as follows: first, 500 ng of genomic DNA obtained from each sample was treated with bisulfite using Zymo EZ DNA Methylation Kit (Zymo Research Corp., Irvine, Calif., USA). Whole genome amplification, labeling, hybridization and scanning were performed according to manufacturers' manuals.
Methylation analysis was conducted using Infinium Human Methylation 450 BeadChip (Illumina, Inc.) for the whole genome or in a ±1 kb region of the transcription start site (TSS) of each gene. Specifically, the ratio of probes for methylated sequences to the total of the probes for methylated sequences and probes for nonmethylated sequences (in the present specification, referred to as a “β value”) was determined. The β value is 0.00 when no methylation is found in all CpG sites, and is 1.00 when all CpG sites are methylated.
First, genes with β value >0.8 in the negative control RKO cells were selected. Genes with β value <0.5 on HO and β value >0.8 in the presence of treatment with 0.1% DMSO on H75 were further selected from the selected genes.

[2] = system: MLH1 gene; test: expression of mRNA of the MLH1 gene in RKO cells by RT-PCR; format: cell-based
[3] = system: promoter region of the MLH1 gene; test: methylation of promoter region of MLH1 gene in RKO cells, pyrosequencing; format: cell-based
Experimental: 1.0×10^5 cells of the […] cells were seeded over a 6 cm dish and treated with a medium containing 5.0 μM 5-aza-2'-deoxycytidine (AZA) over 7 days from the next day. The medium was replaced with a fresh medium every 24 hours. The cells were treated with a medium containing 10 nM trichostatin A (TSA) on the 7th day and recovered on the 8th day. […] The cells of the 8th day were cultured under hypoxic conditions of 1% O2 and 5% CO2. The cells were treated with 0.1% DMSO containing 5 μM PIP1 or PIP2, recovered on the 0th day (R0), the 20th day (R20) and the 30th day ([…]), and examined for the degree of methylation in the region from -27 to -1 of the MLH1 gene by pyrosequencing. During the treatment with PIP, the medium containing PIP1 or PIP2 was replaced every 5 days, and the cells were subcultured when becoming confluent.

[4] = system: FAM-labeled double-stranded oligo DNA of 15 base pairs including a region from −22 to −8 of the MLH1 gene; test: gel shift assay of binding to the target sequence; details: 1 μM double-stranded oligo DNA, 37° C. for 1 hour, FIG. 2A
Experimental: PIP1 was confirmed by gel shift assay to bind to the target sequence. FAM-labeled double-stranded oligo DNA of 15 base pairs including a region from −22 to −8 of the MLH1 gene (double-stranded oligo DNA obtained by annealing sequences of SEQ ID NOs: 2 and 3) was prepared (lower part of FIG. 2A). 1 μM double-stranded oligo DNA was mixed at an indicated final concentration with PIP1 or PIP2 dissolved in 10 μL of a reaction solution containing 10 mM Tris-HCl (pH 8.0) and 10% DMSO, followed by incubation at 37° C. for 1 hour. The obtained reaction product was electrophoresed using 20% polyacrylamide gel, and double-stranded DNA on the gel was visualized using LAS-3000 (Fujifilm Corp., Japan).

[5] = system: region from −27 to −1 of the MLH1 gene; test: in vitro methylation of MLH1 plasmid by CpG methyltransferase M.SssI, pyrosequencing; format: biochemical; details: varying concentrations of PIP1, M.SssI, FIG. 3C
Experimental: A region from −780 to +483 (SEQ ID NO: 1) of MLH1 was amplified from the genomic DNA of the RKO cells by PCR using primers of SEQ ID NOs: 6 and 7 to obtain a DNA fragment, which was then integrated into pGEM-T Easy vector (Promega Corp., Fitchburg, USA) according to the manufacturer's manual (see FIG. 3A). 1 μg of the obtained plasmid was incubated at 25° C. for 12 hours in varying concentrations of PIP1 or 40 μM of PIP2 and 1× NEB buffer solution 2 (New England Biolabs Inc., Ipswich, USA) to bind the pyrrole imidazole polyamide to the DNA. For a negative control, DMSO was added to the plasmid and incubated.
[…] of S-adenosylmethionine (New England Biolabs Inc.) and 4 units of CpG methyltransferase M.SssI (New England Biolabs Inc.) were added to each sample, and 5% DMSO was added thereto to adjust the amount to 20 μL. After incubation at 37° C. for 2 hours, the reaction was terminated by incubation at 65° C. for 20 minutes. The DNA was purified by ethanol precipitation and dissolved in 100 μL of 10 mM Tris-HCl (pH 8.0). Then, the degree of DNA methylation at various sites of the MLH1 gene was tested by pyrosequencing. The primers used were as described in the following table.

[6] = system: RKO cells; test: gene expression analysis by RNA deep sequencing (FPKM) in RKO cells; format: cell-based; details: 10 μM PIP, hypoxia after AZA, FIG. 8 right graphs
Experimental: as §1, §2
Next, the expression levels of particular genes were analyzed. An RNA library was prepared using TruSeq Stranded mRNA Sample Prep Kit (Illumina, Inc.) according to the manufacturer's manual. Deep sequencing was performed using Illumina HiSeq 1500 or NextSeq 500 platform. FASTQ reads were mapped using TopHat, and transcripts were assembled using Cufflinks. gene expression was expressed as FPKM (fragments per kilobase of exon per million reads mapped). The results were as shown in the right graphs of FIG. 8.

| Compound | genome-wide methylation level [1] | expression of mRNA of the MLH1 gene after demethylation treatment ([2]; RKO cells, 5.0 μM AZA over 7 days, 10 nM TSA on the 7th day, FIG. 4B) | degree of methylation in the promoter region from −27 to −1 of the MLH1 gene after demethylation treatment ([3]; RKO cells, 5.0 μM AZA over 7 days, 10 nM TSA on the 7th day, FIG. 4A) | expression of mRNA of the MLH1 gene, which is reduced along with methylation ([2]; AZA+TSA-treated cells, hypoxic conditions, 5 μM PIP, FIGS. 6C and 6D) | binding to the target double-stranded DNA (band shift) [4] | degree of DNA methylation in the region from −27 to −1 of the MLH1 gene on R20 and R30 ([3]; AZA or AZA+TSA pretreated RKO cells, hypoxic conditions 1% O2, 5 μM PIP, FIGS. 6A and 6B) | methylation in a −70 region, a −63 region, a +156 region, and a +171 region of the MLH1 gene ([3]; sites distant from the target site, hypoxic conditions, 5 μM PIP, FIG. 6E) | inhibition of DNA methylation in the region from −27 to −1 of the MLH1 gene [5] | gene expression of NOSTRIN, DSCR9, SLC22A25, OR3A4P and C1WTNF6 [6] | gene expression of TCP11, LYPDS, STAR, LOC253573 and LOC100507573 [6] | genes whose methylation level was reduced by Im0 and Im3 in common, TSS±1 kb region [1] | probes whose methylation level was reduced by Im0 and Im3 in common, TSS±1 kb region [1] | probes whose methylation level was reduced by Im0 and Im3 in common, whole genome [1] | genes whose methylation was selectively reduced by this PIP, TSS±1 kb region [1] | probes whose methylation was selectively reduced by this PIP, TSS±1 kb region [1] | probes whose methylation was selectively reduced by this PIP, whole genome [1] |
| --- | --- | --- | --- | --- | --- | --- | --- | --- | --- | --- | --- | --- | --- | --- | --- | --- |
| Nc1ncn([C@H]2C[C@H](O)[C@@H](CO)O2)c(=O)n1 [AZA, 5-aza-2′-deoxycytidine, reference compound] | demethylated genome-wide | restored | reduced |  |  |  |  |  |  |  |  |  |  |  |  |  |
| CC(=O)Nc1cc(C(=O)Nc2cn(C)c(C(=O)NCCC(=O)Nc3cn(C)c(C(=O)Nc4cn(C)c(C(O)Nc5c[nH]c(C(=O)NCCCC(=O)Nc6cn(C)c(C(=O)Nc7cc(C(=O)NCCC(=O)Nc8cn(C)c(C(=O)Nc9cc(C(=O)Nc%10cc(C(=O)NCCC(=O)NCCCN(C)C)n(C)c%10)n(C)c9)n8)n(C)c7)n6)c5)n4)n3)n2)n(C)c1 (stereo not drawn) [PIP1, Ac-Py-Im-β-Im-Im-Py-γ-Im-Py-β-Im-Py-Py-β-Dp] |  |  |  | maintained | confirmed to bind to the target double-stranded DNA | an increase in the degree of methylation was suppressed | suppress methylation | inhibited DNA methylation in a concentration-dependent manner |  |  |  |  |  |  |  |  |
| Me-Py-Py-Im-Py-β-Dp [Im3] | methylation levels of genes as a whole were drastically reduced |  |  |  |  |  |  |  | selectively maintained | maintained | 9 genes | 19 probes | 19 probes | 254 genes | 450 probes | 1171 probes |
| Me-Py-Py-Py-Py-β-Dp [Im0] | methylation levels of some genes were drastically reduced |  |  |  |  |  |  |  |  | maintained | 9 genes | 19 probes | 19 probes | 1110 genes | 2135 probes | 6099 probes |
